Results published in the supplement of paper PMC10307832.

How the values were obtained:
Experiment in all cases: relative viability (nuclei count vs DMSO), 5 days (fraction); higher = more cells survive
Calu-6 = test system: Calu-6
Outline: (§1)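 Relative viability equals treated-well nuclei counts divided by vehicle-well nuclei counts. Counts came from 4× images of lung cancer cell lines grown in 1536-well plates for 5 days after pin-tool dosing on the day after seeding. Dosing used one drug alone or a fixed anchor-drug dose plus five library-drug doses (not always all listed) in √10 steps, and values are medians of duplicate plates.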

RERF-LC-KJ = test system: RERF-LC-KJ
Outline: as §1

NCI-H2085 = test system: NCI-H2085
Outline: as §1

EKVX = test system: EKVX
Outline: as §1

EBC-1 = test system: EBC-1
Outline: as §1

NCI-H1703 = test system: NCI-H1703
Outline: as §1

NCI-H1299 = test system: NCI-H1299
Outline: as §1

HCC-44 = test system: HCC-44
Outline: as §1

A549 = test system: A549
Outline: as §1

IA-LM = test system: IA-LM
Outline: as §1

NCI-H2126 = test system: NCI-H2126
Outline: as §1

NCI-H1993 = test system: NCI-H1993
Outline: as §1

ABC-1 = test system: ABC-1
Outline: as §1

## COc1nc(C)cnc1NS(=O)(=O)c1cccnc1-c1ccc(-c2nnco2)cc1 [Zibotentan] + CC1(C)CCC(c2ccc(Cl)cc2)=C(CN2CCN(c3ccc(C(=O)NS(=O)(=O)c4ccc(N[C@H](CCN5CCOCC5)CSc5ccccc5)c(S(=O)(=O)C(F)(F)F)c4)cc3)CC2)C1 [Navitoclax] (partner 0.5 µM)
Calu-6; first compound 0.08 µM
  relative viability: 0.832
Calu-6; first compound 0.253 µM
  relative viability: 0.79
Calu-6; first compound 0.8 µM
  relative viability: 0.888
Calu-6; first compound 2.53 µM
  relative viability: 0.894
RERF-LC-KJ; first compound 0.08 µM
  relative viability: 0.996
RERF-LC-KJ; first compound 0.253 µM
  relative viability: 1.2
RERF-LC-KJ; first compound 0.8 µM
  relative viability: 0.887
RERF-LC-KJ; first compound 2.53 µM
  relative viability: 0.976
NCI-H2085; first compound 0.08 µM
  relative viability: 1.23
NCI-H2085; first compound 0.253 µM
  relative viability: 1.08
NCI-H2085; first compound 0.8 µM
  relative viability: 1.28
NCI-H2085; first compound 2.53 µM
  relative viability: 1.27
EKVX; first compound 0.08 µM
  relative viability: 0.938
EKVX; first compound 0.253 µM
  relative viability: 1
EKVX; first compound 0.8 µM
  relative viability: 0.943
EKVX; first compound 2.53 µM
  relative viability: 1.06
EBC-1; first compound 0.08 µM
  relative viability: 0.487
EBC-1; first compound 0.253 µM
  relative viability: 0.499
EBC-1; first compound 0.8 µM
  relative viability: 0.477
EBC-1; first compound 2.53 µM
  relative viability: 0.38
NCI-H1703; first compound 0.08 µM
  relative viability: 1.15
NCI-H1703; first compound 0.253 µM
  relative viability: 1.08
NCI-H1703; first compound 0.8 µM
  relative viability: 1.25
NCI-H1703; first compound 2.53 µM
  relative viability: 1.03
NCI-H1299; first compound 0.08 µM
  relative viability: 1.05
NCI-H1299; first compound 0.253 µM
  relative viability: 0.998
NCI-H1299; first compound 0.8 µM
  relative viability: 1.05
NCI-H1299; first compound 2.53 µM
  relative viability: 1.05
HCC-44; first compound 0.08 µM
  relative viability: 1.24
HCC-44; first compound 0.253 µM
  relative viability: 0.887
HCC-44; first compound 0.8 µM
  relative viability: 0.99
HCC-44; first compound 2.53 µM
  relative viability: 1.04
A549; first compound 0.08 µM
  relative viability: 1.45
A549; first compound 0.253 µM
  relative viability: 1.18
A549; first compound 0.8 µM
  relative viability: 1.26
A549; first compound 2.53 µM
  relative viability: 1.2
IA-LM; first compound 0.08 µM
  relative viability: 0.764
IA-LM; first compound 0.253 µM
  relative viability: 0.688
IA-LM; first compound 0.8 µM
  relative viability: 0.682
IA-LM; first compound 2.53 µM
  relative viability: 0.699
NCI-H2126; first compound 0.08 µM
  relative viability: 0.876
NCI-H2126; first compound 0.253 µM
  relative viability: 0.796
NCI-H2126; first compound 0.8 µM
  relative viability: 0.724
NCI-H2126; first compound 2.53 µM
  relative viability: 0.883
NCI-H1993; first compound 0.253 µM
  relative viability: 0.955
NCI-H1993; first compound 0.8 µM
  relative viability: 0.813
NCI-H1993; first compound 2.53 µM
  relative viability: 0.956

## COc1nc(C)cnc1NS(=O)(=O)c1cccnc1-c1ccc(-c2nnco2)cc1 [Zibotentan] + CC(C)C[C@H](NC(=O)[C@H](Cc1ccccc1)NC(=O)c1cnccn1)B(O)O [Bortezomib] (partner 0.002 µM)
Calu-6; first compound 0.08 µM
  relative viability: 0.929
Calu-6; first compound 0.253 µM
  relative viability: 0.888
Calu-6; first compound 0.8 µM
  relative viability: 1.02
Calu-6; first compound 2.53 µM
  relative viability: 1.06
ABC-1; first compound 0.08 µM
  relative viability: 0.348
ABC-1; first compound 0.253 µM
  relative viability: 0.289
ABC-1; first compound 0.8 µM
  relative viability: 0.374
ABC-1; first compound 2.53 µM
  relative viability: 0.316
RERF-LC-KJ; first compound 0.08 µM
  relative viability: 1.04
RERF-LC-KJ; first compound 0.253 µM
  relative viability: 1.1
RERF-LC-KJ; first compound 0.8 µM
  relative viability: 1.09
RERF-LC-KJ; first compound 2.53 µM
  relative viability: 0.998
NCI-H2085; first compound 0.08 µM
  relative viability: 1.06
NCI-H2085; first compound 0.253 µM
  relative viability: 0.941
NCI-H2085; first compound 0.8 µM
  relative viability: 1.07
NCI-H2085; first compound 2.53 µM
  relative viability: 1.14
EKVX; first compound 0.08 µM
  relative viability: 1.13
EKVX; first compound 0.253 µM
  relative viability: 1.17
EKVX; first compound 0.8 µM
  relative viability: 1.11
EKVX; first compound 2.53 µM
  relative viability: 1.07
EBC-1; first compound 0.08 µM
  relative viability: 0.704
EBC-1; first compound 0.253 µM
  relative viability: 0.566
EBC-1; first compound 0.8 µM
  relative viability: 0.584
EBC-1; first compound 2.53 µM
  relative viability: 0.592
NCI-H1703; first compound 0.08 µM
  relative viability: 0.512
NCI-H1703; first compound 0.253 µM
  relative viability: 0.372
NCI-H1703; first compound 0.8 µM
  relative viability: 0.38
NCI-H1703; first compound 2.53 µM
  relative viability: 0.346
NCI-H1299; first compound 0.08 µM
  relative viability: 0.999
NCI-H1299; first compound 0.253 µM
  relative viability: 0.998
NCI-H1299; first compound 0.8 µM
  relative viability: 0.965
NCI-H1299; first compound 2.53 µM
  relative viability: 1.08
HCC-44; first compound 0.08 µM
  relative viability: 0.909
HCC-44; first compound 0.253 µM
  relative viability: 0.894
HCC-44; first compound 0.8 µM
  relative viability: 0.959
HCC-44; first compound 2.53 µM
  relative viability: 0.883
IA-LM; first compound 0.08 µM
  relative viability: 0.791
IA-LM; first compound 0.253 µM
  relative viability: 0.758
IA-LM; first compound 0.8 µM
  relative viability: 0.709
IA-LM; first compound 2.53 µM
  relative viability: 0.828
NCI-H2126; first compound 0.08 µM
  relative viability: 1.19
NCI-H2126; first compound 0.253 µM
  relative viability: 1.15
NCI-H2126; first compound 0.8 µM
  relative viability: 1.15
NCI-H2126; first compound 2.53 µM
  relative viability: 1.16
NCI-H1993; first compound 0.253 µM
  relative viability: 1.05
NCI-H1993; first compound 0.8 µM
  relative viability: 0.994
NCI-H1993; first compound 2.53 µM
  relative viability: 1.8
